Measurements as given in PubChem BioAssay (NCI).
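Assay format: 96-well plates, 48-hour exposure. Abbreviation: GI50, concentration required for 50% inhibition of growth. TGI: total growth inhibition.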

Experiments:
Experiment in all cases: DTP human tumour cell line panel, 48 h
NCI-H226 lung = tested on: NCI-H226 lung
NCI-H23 lung = tested on: NCI-H23 lung
NCI-H460 lung = tested on: NCI-H460 lung
NCI-H522 lung = tested on: NCI-H522 lung
NCI/ADR-RES ovarian = tested on: NCI/ADR-RES ovarian
OVCAR-3 ovarian = tested on: OVCAR-3 ovarian
OVCAR-4 ovarian = tested on: OVCAR-4 ovarian
OVCAR-5 ovarian = tested on: OVCAR-5 ovarian
OVCAR-8 ovarian = tested on: OVCAR-8 ovarian
PC-3 prostate = tested on: PC-3 prostate
RPMI-8226 leukemia = tested on: RPMI-8226 leukemia
RXF 393 renal = tested on: RXF 393 renal
SF-268 CNS = tested on: SF-268 CNS
SF-295 CNS = tested on: SF-295 CNS
SF-539 CNS = tested on: SF-539 CNS
SK-MEL-2 melanoma = tested on: SK-MEL-2 melanoma
SK-MEL-28 melanoma = tested on: SK-MEL-28 melanoma
SK-MEL-5 melanoma = tested on: SK-MEL-5 melanoma
SK-OV-3 ovarian = tested on: SK-OV-3 ovarian
SN12C renal = tested on: SN12C renal
SNB-19 CNS = tested on: SNB-19 CNS
SNB-75 CNS = tested on: SNB-75 CNS
SW-620 colon = tested on: SW-620 colon
T-47D breast = tested on: T-47D breast
TK-10 renal = tested on: TK-10 renal
U251 CNS = tested on: U251 CNS
UACC-257 melanoma = tested on: UACC-257 melanoma
UACC-62 melanoma = tested on: UACC-62 melanoma
UO-31 renal = tested on: UO-31 renal

COc1ccc2cc(-c3c(-c4ccncc4)nc(-c4ccc(S(C)=O)cc4C)n3C)ccc2c1 (configuration not stated)
TGI (NCI-H226 lung): > 25 µM
GI50 (NCI-H23 lung): > 25 µM
TGI (NCI-H23 lung): > 25 µM
GI50 (NCI-H460 lung): 24.6 µM
TGI (NCI-H460 lung): > 25 µM
GI50 (NCI-H522 lung): 10.6 µM
TGI (NCI-H522 lung): > 25 µM
GI50 (NCI/ADR-RES ovarian): 24.3 µM
TGI (NCI/ADR-RES ovarian): > 25 µM
GI50 (OVCAR-3 ovarian): 14.3 µM
TGI (OVCAR-3 ovarian): > 25 µM
GI50 (OVCAR-4 ovarian): 16.3 µM
TGI (OVCAR-4 ovarian): > 25 µM
GI50 (OVCAR-5 ovarian): > 25 µM
TGI (OVCAR-5 ovarian): > 25 µM
GI50 (OVCAR-8 ovarian): 24.7 µM
TGI (OVCAR-8 ovarian): > 25 µM
GI50 (PC-3 prostate): 15.9 µM
TGI (PC-3 prostate): > 25 µM
GI50 (RPMI-8226 leukemia): 14.1 µM
TGI (RPMI-8226 leukemia): > 25 µM
GI50 (RXF 393 renal): > 24.2 µM
TGI (RXF 393 renal): > 25 µM
GI50 (SF-268 CNS): > 25 µM
TGI (SF-268 CNS): > 25 µM
GI50 (SF-295 CNS): 16.6 µM
TGI (SF-295 CNS): > 25 µM
GI50 (SF-539 CNS): > 25 µM
TGI (SF-539 CNS): > 25 µM
GI50 (SK-MEL-2 melanoma): > 25 µM
TGI (SK-MEL-2 melanoma): > 25 µM
GI50 (SK-MEL-28 melanoma): > 25 µM
TGI (SK-MEL-28 melanoma): > 25 µM
GI50 (SK-MEL-5 melanoma): 7.58 µM
TGI (SK-MEL-5 melanoma): > 21.6 µM
GI50 (SK-OV-3 ovarian): 11.3 µM
TGI (SK-OV-3 ovarian): > 25 µM
GI50 (SN12C renal): 15.7 µM
TGI (SN12C renal): > 25 µM
GI50 (SNB-19 CNS): > 25 µM
TGI (SNB-19 CNS): > 25 µM
GI50 (SNB-75 CNS): > 20.8 µM
TGI (SNB-75 CNS): > 25 µM
GI50 (SW-620 colon): > 25 µM
TGI (SW-620 colon): > 25 µM
GI50 (T-47D breast): 8.78 µM
TGI (T-47D breast): > 25 µM
GI50 (TK-10 renal): 7.62 µM
TGI (TK-10 renal): > 25 µM
GI50 (U251 CNS): > 23.2 µM
TGI (U251 CNS): > 25 µM
GI50 (UACC-257 melanoma): 14.8 µM
TGI (UACC-257 melanoma): > 25 µM
GI50 (UACC-62 melanoma): 13.8 µM
TGI (UACC-62 melanoma): > 25 µM
GI50 (UO-31 renal): 6.37 µM
TGI (UO-31 renal): > 25 µM
